Measurements published in PMC6458995, “MAP4K4 Inhibition Promotes Survival of Human Stem Cell-Derived Cardiomyocytes and Reduces Infarct Size In Vivo” (Cell Stem Cell, 2019).

Tests used:
Test in all cases: Dundee kinase panel
Type in all cases: biochemical
Settings in all cases: for remaining activity at 1 µM: read-out: residual activity
[1] = molecular target: T1, EPH-B1 (Homo sapiens, UniProt P54762)
T1 construct: lines 1-140) and Reaction Biology
T1 sequence (P54762 18-984): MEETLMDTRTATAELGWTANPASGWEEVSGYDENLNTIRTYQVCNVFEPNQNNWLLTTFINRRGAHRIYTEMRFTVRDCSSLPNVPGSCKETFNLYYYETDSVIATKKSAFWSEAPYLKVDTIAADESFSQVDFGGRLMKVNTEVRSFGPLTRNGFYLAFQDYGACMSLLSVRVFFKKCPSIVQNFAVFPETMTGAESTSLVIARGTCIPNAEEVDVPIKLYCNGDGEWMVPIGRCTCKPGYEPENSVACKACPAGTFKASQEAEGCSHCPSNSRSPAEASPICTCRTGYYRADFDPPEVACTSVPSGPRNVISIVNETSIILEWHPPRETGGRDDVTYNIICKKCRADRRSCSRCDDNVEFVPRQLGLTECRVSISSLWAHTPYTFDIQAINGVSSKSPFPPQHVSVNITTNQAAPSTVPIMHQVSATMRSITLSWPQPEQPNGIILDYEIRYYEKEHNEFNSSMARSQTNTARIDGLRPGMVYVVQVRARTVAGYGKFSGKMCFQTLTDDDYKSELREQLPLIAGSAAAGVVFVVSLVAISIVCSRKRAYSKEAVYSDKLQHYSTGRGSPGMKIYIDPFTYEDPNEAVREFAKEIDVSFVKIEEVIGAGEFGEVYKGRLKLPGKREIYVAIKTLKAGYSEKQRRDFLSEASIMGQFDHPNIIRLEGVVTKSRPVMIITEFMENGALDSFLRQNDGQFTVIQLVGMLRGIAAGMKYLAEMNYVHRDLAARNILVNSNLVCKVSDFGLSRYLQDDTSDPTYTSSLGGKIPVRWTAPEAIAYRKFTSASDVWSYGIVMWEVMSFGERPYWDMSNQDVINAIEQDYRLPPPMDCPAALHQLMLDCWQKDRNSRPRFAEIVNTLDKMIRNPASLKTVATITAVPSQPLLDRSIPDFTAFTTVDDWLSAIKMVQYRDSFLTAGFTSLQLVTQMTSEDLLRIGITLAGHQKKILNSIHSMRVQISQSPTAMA
Protocol: (§1) Compounds were screened at 1 μM. For key hits, pIC50 values were then determined by HTRF as above. […] Stability in mouse and human liver microsomes was determined by Cyprotex.

[2] = molecular target: T2, MAPKAP-K3 (Homo sapiens, UniProt Q16644)
T2 construct: lines 1-140) and Reaction Biology
T2 sequence (Q16644 whole entry): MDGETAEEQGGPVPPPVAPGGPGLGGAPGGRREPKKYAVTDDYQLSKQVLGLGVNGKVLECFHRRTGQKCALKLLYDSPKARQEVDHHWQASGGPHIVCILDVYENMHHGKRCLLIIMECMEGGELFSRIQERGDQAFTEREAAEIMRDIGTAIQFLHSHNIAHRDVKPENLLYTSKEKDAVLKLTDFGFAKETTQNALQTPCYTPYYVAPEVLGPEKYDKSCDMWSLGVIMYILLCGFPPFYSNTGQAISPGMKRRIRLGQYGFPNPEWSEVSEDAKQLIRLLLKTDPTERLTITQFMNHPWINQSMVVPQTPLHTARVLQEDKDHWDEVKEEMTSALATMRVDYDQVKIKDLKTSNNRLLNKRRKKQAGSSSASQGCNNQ
Protocol: as §1

[3] = molecular target: T3, MARK3 (Homo sapiens, UniProt P27448)
T3 construct: lines 1-140) and Reaction Biology
T3 sequence (P27448 whole entry): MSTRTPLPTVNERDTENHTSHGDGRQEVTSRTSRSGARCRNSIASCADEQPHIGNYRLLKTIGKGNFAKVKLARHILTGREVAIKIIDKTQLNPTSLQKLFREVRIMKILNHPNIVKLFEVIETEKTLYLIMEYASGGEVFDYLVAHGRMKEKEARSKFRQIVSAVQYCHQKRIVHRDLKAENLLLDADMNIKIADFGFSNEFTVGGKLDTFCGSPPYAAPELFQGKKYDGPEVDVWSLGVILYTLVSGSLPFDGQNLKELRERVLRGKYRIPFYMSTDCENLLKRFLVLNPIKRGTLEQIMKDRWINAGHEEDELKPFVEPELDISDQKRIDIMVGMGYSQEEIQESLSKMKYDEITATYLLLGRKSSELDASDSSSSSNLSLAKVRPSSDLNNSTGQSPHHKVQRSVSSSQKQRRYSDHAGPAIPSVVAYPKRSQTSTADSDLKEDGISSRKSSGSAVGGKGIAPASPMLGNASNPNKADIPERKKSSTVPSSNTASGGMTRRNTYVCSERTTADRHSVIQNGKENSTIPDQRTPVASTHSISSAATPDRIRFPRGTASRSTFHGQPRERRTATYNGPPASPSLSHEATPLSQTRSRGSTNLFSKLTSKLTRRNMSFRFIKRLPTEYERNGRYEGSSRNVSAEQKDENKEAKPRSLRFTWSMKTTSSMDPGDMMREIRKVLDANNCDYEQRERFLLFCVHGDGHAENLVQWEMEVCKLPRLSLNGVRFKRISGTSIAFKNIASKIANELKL
Protocol: as §1

[4] = molecular target: T4, MEKK1 (Homo sapiens, UniProt Q13233)
T4 construct: lines 1-140) and Reaction Biology
T4 sequence (Q13233 whole entry): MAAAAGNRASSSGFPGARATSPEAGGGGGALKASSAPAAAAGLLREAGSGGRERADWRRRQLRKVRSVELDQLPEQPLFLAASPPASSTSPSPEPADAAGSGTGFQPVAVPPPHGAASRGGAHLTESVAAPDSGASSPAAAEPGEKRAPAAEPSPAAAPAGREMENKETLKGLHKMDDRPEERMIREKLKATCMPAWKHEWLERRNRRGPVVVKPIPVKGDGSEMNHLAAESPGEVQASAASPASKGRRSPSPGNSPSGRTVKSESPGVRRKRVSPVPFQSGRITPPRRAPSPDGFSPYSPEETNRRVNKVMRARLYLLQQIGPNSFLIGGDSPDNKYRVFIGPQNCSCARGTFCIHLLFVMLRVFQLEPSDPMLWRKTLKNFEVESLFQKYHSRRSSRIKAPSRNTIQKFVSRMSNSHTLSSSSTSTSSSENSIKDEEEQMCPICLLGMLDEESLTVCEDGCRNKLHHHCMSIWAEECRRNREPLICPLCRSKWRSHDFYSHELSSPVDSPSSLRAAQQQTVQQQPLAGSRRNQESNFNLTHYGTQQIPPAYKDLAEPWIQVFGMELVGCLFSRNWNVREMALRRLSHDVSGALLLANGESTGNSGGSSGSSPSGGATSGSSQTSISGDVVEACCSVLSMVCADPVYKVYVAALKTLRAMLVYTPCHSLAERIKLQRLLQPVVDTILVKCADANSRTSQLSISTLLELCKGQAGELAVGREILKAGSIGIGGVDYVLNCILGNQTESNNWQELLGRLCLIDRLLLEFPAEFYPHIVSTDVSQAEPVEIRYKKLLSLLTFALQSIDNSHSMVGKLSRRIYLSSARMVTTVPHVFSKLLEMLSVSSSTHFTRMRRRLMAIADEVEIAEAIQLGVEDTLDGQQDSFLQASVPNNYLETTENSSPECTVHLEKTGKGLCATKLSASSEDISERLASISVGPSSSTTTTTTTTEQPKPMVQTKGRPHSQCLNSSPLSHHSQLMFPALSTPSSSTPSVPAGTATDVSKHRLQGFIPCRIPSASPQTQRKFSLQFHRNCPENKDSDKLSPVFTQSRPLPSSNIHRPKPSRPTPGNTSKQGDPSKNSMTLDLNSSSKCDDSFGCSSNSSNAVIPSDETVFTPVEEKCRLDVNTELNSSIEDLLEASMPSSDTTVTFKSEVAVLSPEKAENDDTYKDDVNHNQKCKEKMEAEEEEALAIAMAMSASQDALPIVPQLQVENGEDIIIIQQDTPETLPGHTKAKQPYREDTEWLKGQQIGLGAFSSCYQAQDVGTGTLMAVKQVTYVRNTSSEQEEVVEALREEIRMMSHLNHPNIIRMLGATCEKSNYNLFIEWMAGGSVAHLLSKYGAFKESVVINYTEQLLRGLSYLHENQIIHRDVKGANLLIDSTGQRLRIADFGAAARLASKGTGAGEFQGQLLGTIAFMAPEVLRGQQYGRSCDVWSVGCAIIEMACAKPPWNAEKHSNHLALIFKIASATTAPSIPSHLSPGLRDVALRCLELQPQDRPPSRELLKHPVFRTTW
Protocol: as §1

[5] = molecular target: T5, MNK1 (Homo sapiens, UniProt Q9BUB5)
T5 construct: lines 1-140) and Reaction Biology
Protocol: as §1

[6] = molecular target: T6, MST2 (Homo sapiens, UniProt Q13188)
T6 construct: lines 1-140) and Reaction Biology
T6 sequence (Q13188 1-491): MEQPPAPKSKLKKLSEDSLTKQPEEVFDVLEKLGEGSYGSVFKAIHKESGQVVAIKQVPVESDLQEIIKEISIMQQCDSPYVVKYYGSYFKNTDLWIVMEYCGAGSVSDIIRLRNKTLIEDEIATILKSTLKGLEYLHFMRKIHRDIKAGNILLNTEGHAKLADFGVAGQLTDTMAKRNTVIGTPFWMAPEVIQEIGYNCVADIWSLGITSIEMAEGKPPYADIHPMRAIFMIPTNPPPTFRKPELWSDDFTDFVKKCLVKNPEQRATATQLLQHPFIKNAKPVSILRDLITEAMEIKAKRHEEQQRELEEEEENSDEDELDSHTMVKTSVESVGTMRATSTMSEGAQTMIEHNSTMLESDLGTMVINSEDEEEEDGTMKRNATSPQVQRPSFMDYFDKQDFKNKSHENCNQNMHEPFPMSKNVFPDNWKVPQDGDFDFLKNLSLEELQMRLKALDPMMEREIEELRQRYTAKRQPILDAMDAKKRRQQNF
Protocol: as §1

[7] = molecular target: T7, PDK1 (Homo sapiens, UniProt O15530)
T7 construct: lines 1-140) and Reaction Biology
T7 sequence (O15530 1-556): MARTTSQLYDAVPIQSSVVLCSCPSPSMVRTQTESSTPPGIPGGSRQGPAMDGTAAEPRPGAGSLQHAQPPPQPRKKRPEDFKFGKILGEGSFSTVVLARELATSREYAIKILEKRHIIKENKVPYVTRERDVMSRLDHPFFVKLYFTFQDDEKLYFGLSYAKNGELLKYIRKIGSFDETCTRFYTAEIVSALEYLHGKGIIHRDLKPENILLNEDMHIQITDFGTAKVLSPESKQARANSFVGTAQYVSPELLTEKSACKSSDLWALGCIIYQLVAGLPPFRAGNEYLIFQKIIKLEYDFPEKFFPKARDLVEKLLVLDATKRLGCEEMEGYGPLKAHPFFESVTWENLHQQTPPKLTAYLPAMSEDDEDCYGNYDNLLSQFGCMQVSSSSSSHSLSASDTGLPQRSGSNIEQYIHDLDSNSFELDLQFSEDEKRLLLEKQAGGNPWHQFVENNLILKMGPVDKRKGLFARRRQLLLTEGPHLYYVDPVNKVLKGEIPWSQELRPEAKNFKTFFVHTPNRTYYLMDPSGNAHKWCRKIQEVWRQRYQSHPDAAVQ
Protocol: as §1

[8] = molecular target: T8, PIM1 (Homo sapiens, UniProt P11309)
T8 construct: lines 1-140) and Reaction Biology
T8 sequence (P11309 whole entry): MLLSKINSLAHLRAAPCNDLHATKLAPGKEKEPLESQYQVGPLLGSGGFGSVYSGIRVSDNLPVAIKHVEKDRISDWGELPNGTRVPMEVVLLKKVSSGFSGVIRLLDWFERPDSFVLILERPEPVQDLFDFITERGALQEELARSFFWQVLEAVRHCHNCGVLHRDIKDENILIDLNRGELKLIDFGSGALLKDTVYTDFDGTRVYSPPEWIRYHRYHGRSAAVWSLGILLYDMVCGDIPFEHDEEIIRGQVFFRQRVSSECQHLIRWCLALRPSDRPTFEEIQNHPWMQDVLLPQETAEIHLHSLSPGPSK
Protocol: as §1

[9] = molecular target: T9, PIM2 (Homo sapiens, UniProt Q9P1W9)
T9 construct: lines 1-140) and Reaction Biology
T9 sequence (Q9P1W9 whole entry): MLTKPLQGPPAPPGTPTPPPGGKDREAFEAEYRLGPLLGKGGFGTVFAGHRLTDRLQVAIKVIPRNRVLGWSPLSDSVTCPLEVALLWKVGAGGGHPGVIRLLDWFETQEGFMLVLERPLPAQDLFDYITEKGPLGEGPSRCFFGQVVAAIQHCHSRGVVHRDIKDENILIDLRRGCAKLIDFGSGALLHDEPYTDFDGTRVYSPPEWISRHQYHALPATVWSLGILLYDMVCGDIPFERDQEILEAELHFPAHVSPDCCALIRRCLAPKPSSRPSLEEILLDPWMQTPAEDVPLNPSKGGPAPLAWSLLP
Protocol: as §1

[10] = molecular target: T10, TTBK1 (Homo sapiens, UniProt Q5TCY1)
T10 construct: lines 1-140) and Reaction Biology
T10 sequence (Q5TCY1 whole entry): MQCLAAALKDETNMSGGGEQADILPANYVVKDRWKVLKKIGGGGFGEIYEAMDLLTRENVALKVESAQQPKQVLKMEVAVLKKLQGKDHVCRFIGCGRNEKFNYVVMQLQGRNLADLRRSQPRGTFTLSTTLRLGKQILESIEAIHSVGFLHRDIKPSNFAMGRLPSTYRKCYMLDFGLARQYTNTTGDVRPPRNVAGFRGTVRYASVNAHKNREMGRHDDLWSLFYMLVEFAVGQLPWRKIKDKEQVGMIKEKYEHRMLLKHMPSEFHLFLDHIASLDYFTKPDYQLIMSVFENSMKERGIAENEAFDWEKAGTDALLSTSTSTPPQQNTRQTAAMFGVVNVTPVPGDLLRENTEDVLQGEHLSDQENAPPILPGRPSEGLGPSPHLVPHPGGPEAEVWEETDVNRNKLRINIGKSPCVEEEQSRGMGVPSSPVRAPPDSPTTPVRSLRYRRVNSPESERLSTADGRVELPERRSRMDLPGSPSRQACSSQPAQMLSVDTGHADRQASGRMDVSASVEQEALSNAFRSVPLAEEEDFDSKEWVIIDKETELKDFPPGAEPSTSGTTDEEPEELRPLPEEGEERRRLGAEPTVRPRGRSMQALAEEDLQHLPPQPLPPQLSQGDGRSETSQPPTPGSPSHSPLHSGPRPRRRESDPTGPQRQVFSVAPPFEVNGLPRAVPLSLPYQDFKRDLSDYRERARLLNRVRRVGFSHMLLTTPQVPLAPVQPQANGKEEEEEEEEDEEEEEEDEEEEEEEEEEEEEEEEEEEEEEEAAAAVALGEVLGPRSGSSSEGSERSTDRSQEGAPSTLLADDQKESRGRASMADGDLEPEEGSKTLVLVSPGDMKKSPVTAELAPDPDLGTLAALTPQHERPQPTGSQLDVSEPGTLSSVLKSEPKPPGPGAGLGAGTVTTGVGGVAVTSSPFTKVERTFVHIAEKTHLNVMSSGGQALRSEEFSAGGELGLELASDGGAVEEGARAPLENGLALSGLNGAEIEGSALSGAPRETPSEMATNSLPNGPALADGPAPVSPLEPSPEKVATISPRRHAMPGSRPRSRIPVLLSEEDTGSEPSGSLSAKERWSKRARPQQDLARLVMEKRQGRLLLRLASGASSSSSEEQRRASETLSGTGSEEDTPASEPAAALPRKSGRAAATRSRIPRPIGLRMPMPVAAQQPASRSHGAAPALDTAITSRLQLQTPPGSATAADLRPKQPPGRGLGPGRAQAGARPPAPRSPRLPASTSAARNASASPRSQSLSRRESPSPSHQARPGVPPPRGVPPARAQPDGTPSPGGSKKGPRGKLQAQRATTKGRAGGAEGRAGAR
Protocol: as §1

[11] = molecular target: T11, p38b MAPK (Homo sapiens, UniProt Q15759)
T11 construct: lines 1-140) and Reaction Biology
T11 sequence (Q15759 whole entry): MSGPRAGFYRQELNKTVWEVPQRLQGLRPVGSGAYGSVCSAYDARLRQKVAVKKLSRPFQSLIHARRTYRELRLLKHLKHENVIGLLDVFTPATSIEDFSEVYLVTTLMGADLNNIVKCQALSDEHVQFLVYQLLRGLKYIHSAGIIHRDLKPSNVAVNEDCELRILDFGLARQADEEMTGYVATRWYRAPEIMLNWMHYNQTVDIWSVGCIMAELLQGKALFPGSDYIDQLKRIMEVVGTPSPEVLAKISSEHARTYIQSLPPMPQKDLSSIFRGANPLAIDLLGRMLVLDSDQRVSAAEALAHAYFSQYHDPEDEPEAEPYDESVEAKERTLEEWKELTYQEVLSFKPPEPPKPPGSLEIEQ
Protocol: as §1

SMILES | remaining activity at 1 µM [1] [%] | remaining activity at 1 µM [2] [%] | remaining activity at 1 µM [3] [%] | remaining activity at 1 µM [4] [%] | remaining activity at 1 µM [5] [%] | remaining activity at 1 µM [6] [%] | remaining activity at 1 µM [7] [%] | remaining activity at 1 µM [8] [%] | remaining activity at 1 µM [9] [%] | remaining activity at 1 µM [10] [%] | remaining activity at 1 µM [11] [%] | also measured
O=C1Cc2c([nH]c3ccc(Br)cc23)-c2ccccc2N1 [Kenpaullone] | 94 | 83 | 62 | 5 | 91 | 63 | 64 | 90 | 67 | 88 | 95 | 
COCCOc1ccc(-c2cn(-c3ccccc3)c3nc[nH]c(=O)c23)cc1 [DMX-5804, 5-[4-(2-methoxy-ethoxy)-phenyl]-7-phenyl-3,7-dihydro-pyrrolo[2,3-d]pyrimidin-4-one] | 108 | 104 | 88 | 111 | 90 | 46 | 89 | 98 | 105 | 113 | 93 | 
O=C1Nc2ccc(I)cc2/C1=C/c1cc(Br)c(O)c(Br)c1 [GW5074] | 94 | 71 | 72 | 5 | 82 | 93 | 22 | 76 | 10 | 62 | 77 | 
Nc1ncc(C(=O)NC2CN(C(=O)C3CC3)C2)c2ccc(-c3cccc(F)c3)nc12 [GNE-495] |  |  |  |  |  |  |  |  |  |  |  | residual activity ([1]; 1 μM): 99%; residual activity ([2]; 1 μM): 99%; residual activity ([3]; 1 μM): 46%; residual activity ([4]; 1 μM): 87%; residual activity ([5]; 1 μM): 53%; residual activity ([6]; 1 μM): 76%; residual activity ([7]; 1 μM): 90%; residual activity ([8]; 1 μM): 103%; residual activity ([9]; 1 μM): 95%; residual activity ([10]; 1 μM): 97%; residual activity ([11]; 1 μM): 100%
Oc1ncnc2c1c(-c1ccccc1)cn2-c1ccccc1 [F1386-0303, 5,7-diphenyl-7H-pyrrolo[2,3-d]pyrimidin-4-ol] | 86 | 104 | 111 | 97 | 102 | 63 | 103 | 122 | 84 | 102 | 96 | 
